Measured values from patent publication US9458181B2, “Cathepsin cysteine protease inhibitors” (Merck Sharp & Dohme Corp., priority 2013, dated 2016).

Key:
[1] = target: human cathepsin K (UniProt P43236); experiment: Cathepsin K Assay (hrbCat K); type: biochemical; settings: human cathepsin K 0.4 nM, Z-Leu-Arg-AMC 8 μM, pH 5.5, 15 min preincubation; read-out: hrbCat K IP
Procedure, shortened: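 Human cathepsin K (0.4 nM) in pH 5.5 MES buffer with EDTA, DTT and 10% DMSO was preincubated 15 min at room temperature with compound from a ⅓ dilution series (500-0.025 μM DMSO stocks). Z-Leu-Arg-AMC (8 μM) was then added, and AMC release was followed fluorometrically (Ex 360/Em 460 nm) for 30 min; inhibition was fitted to a dose-response model.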

[2] = target: T1, human cathepsin F (Homo sapiens, UniProt Q9UBX1); experiment: Cathepsin F assay (hCat F); type: biochemical; settings: human cathepsin F 10 nM, Z-Phe-Arg-AMC 8 μM, pH 5.5, 15 min preincubation; read-out: hCat F IP
T1 sequence (Q9UBX1 271-484): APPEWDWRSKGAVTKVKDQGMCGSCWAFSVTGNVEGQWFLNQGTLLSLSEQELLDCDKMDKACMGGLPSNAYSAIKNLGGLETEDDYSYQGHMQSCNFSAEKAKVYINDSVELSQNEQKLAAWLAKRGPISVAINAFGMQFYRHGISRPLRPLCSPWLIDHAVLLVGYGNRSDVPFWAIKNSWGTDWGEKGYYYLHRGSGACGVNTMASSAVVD
Procedure, shortened: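 Human cathepsin F (10 nM) in 50 mM MES pH 5.5, 2.5 mM EDTA, 2.5 mM DTT, 10% DMSO was preincubated 15 min at RT with compounds from a ⅓ DMSO dilution series (500–0.025 μM stocks). Z-Phe-Arg-AMC was added (8 μM as added), and AMC release was read by fluorescence (360/460 nm) for 20 min. Percent inhibition was fitted to a dose-response model.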

IC50 [1] | IC50 [2] | Compound
0.37 nM | 681 nM | N#CC1(NC(=O)[C@@H]2CCCC[C@H]2c2oc(-c3ccc(F)cc3F)nc2-c2ccc(N3CCS(=O)(=O)CC3)cc2)CC1 [Example 27, (1R,2R)-N-(1-cyanocyclopropyl)-2-(2-(2,4-difluorophenyl)-4-(4-(1,1-dioxidothiomorpholino)phenyl)oxazol-5-yl)cyclohexanecarboxamide]
3.19 nM | 722 nM | N#CC1(NC(=O)[C@@H]2CCCC[C@H]2c2sc(-c3ccc(F)cc3)nc2-c2ccc(N3CCS(=O)(=O)CC3)cc2)CC1 [Example 56, (1R,2R)-N-(1-cyanocyclopropyl)-2-(4-(4-(1,1-dioxidothiomorpholino)phenyl)-2-(4-fluorophenyl)thiazol-5-yl)cyclohexanecarboxamide]
1.94 nM | 692 nM | N#C[C@@H](NC(=O)[C@@H]1CCCC[C@H]1c1oc(-c2ccc(F)cc2)nc1-c1ccc(N2CCS(=O)(=O)CC2)cc1)C1CCOCC1 [Example 128, (1R,2R)-N-((S)-cyano(tetrahydro-2H-pyran-4-yl)methyl)-2-(4-(4-(1,1-dioxidothiomorpholino)phenyl)-2-(4-fluorophenyl)oxazol-5-yl)cyclohexanecarboxamide]
6.37 nM | ≥ 10000 nM | N#CC1(NC(=O)[C@@H]2CCCC[C@H]2c2oc(N3CCC(F)(F)CC3)nc2-c2ccc(N3CCS(=O)(=O)CC3)cc2)CC1 [Example 4, (1R,2R)—N-(1-Cyanocyclopropyl)-2-(2-(4,4-difluoropiperidin-1-yl)-4-(4-(1,1-dioxidothiomorpholino)phenyl)oxazol-5-yl)cyclohexanecarboxamide]
0.66 nM | 447 nM | CS(=O)(=O)C1CN(c2ccc(-c3nc(C(F)(F)F)oc3[C@@H]3CCCC[C@H]3C(=O)NC3(C#N)CC3)cc2)C1 [Example 25]
